Experimental data as given in ChEMBL document CHEMBL4665642, “Anticancer profile of newly synthesized BRAF inhibitors possess 5-(pyrimidin-4-yl)imidazo[2,1-b]thiazole scaffold” (Bioorg Med Chem, 2019).

Columns and labels:
Format in all cases: functional
Settings in all cases: read-out: Activity
[1] = tested on: MDA-MB-468; assay: Cytotoxicity against human MDA-MB-468 cells assessed as cell viability at 10 uM incubated for 48 hrs by sulforhodamine B assay relative to control
[2] = tested on: T47D; assay: Cytotoxicity against human T47D cells assessed as cell viability at 10 uM incubated for 48 hrs by sulforhodamine B assay relative to control
[3] = tested on: MDA-MB-231; assay: Cytotoxicity against human MDA-MB-231 cells assessed as cell viability at 10 uM incubated for 48 hrs by sulforhodamine B assay relative to control
[4] = tested on: MCF7; assay: Cytotoxicity against human MCF7 cells assessed as cell viability at 10 uM incubated for 48 hrs by sulforhodamine B assay relative to control
[5] = tested on: DU-145; assay: Cytotoxicity against human DU-145 cells assessed as cell viability at 10 uM incubated for 48 hrs by sulforhodamine B assay relative to control
[6] = tested on: UO-31; assay: Cytotoxicity against human UO-31 cells assessed as cell viability at 10 uM incubated for 48 hrs by sulforhodamine B assay relative to control
[7] = tested on: SN12C; assay: Cytotoxicity against human SN12C cells assessed as cell viability at 10 uM incubated for 48 hrs by sulforhodamine B assay relative to control
[8] = tested on: CAKI-1; assay: Cytotoxicity against human CAKI-1 cells assessed as cell viability at 10 uM incubated for 48 hrs by sulforhodamine B assay relative to control
[9] = tested on: ACHN; assay: Cytotoxicity against human ACHN cells assessed as cell viability at 10 uM incubated for 48 hrs by sulforhodamine B assay relative to control
[10] = tested on: SK-OV-3; assay: Cytotoxicity against human SK-OV-3 cells assessed as cell viability at 10 uM incubated for 48 hrs by sulforhodamine B assay relative to control
[11] = tested on: IGROV-1; assay: Cytotoxicity against human IGROV-1 cells assessed as cell viability at 10 uM incubated for 48 hrs by sulforhodamine B assay relative to control
[12] = tested on: UACC-62; assay: Cytotoxicity against human UACC-62 cells assessed as cell viability at 10 uM incubated for 48 hrs by sulforhodamine B assay relative to control
[13] = tested on: UACC-257; assay: Cytotoxicity against human UACC-257 cells assessed as cell viability at 10 uM incubated for 48 hrs by sulforhodamine B assay relative to control
[14] = tested on: SK-MEL-5; assay: Cytotoxicity against human SK-MEL-5 cells assessed as cell viability at 10 uM incubated for 48 hrs by sulforhodamine B assay relative to control
[15] = tested on: SK-MEL-28; assay: Cytotoxicity against human SK-MEL-28 cells assessed as cell viability at 10 uM incubated for 48 hrs by sulforhodamine B assay relative to control
[16] = tested on: SK-MEL-2; assay: Cytotoxicity against human SK-MEL-2 cells assessed as cell viability at 10 uM incubated for 48 hrs by sulforhodamine B assay relative to control
[17] = tested on: CCRF-CEM; assay: Cytotoxicity against human CCRF-CEM cells assessed as cell viability at 10 uM incubated for 48 hrs by sulforhodamine B assay relative to control
[18] = tested on: K562; assay: Cytotoxicity against human K562 cells assessed as cell viability at 10 uM incubated for 48 hrs by sulforhodamine B assay relative to control
[19] = tested on: MOLT-4; assay: Cytotoxicity against human MOLT-4 cells assessed as cell viability at 10 uM incubated for 48 hrs by sulforhodamine B assay relative to control
[20] = tested on: RPMI-8226; assay: Cytotoxicity against human RPMI-8226 cells assessed as cell viability at 10 uM incubated for 48 hrs by sulforhodamine B assay relative to control
[21] = tested on: SR; assay: Cytotoxicity against human SR cells assessed as cell viability at 10 uM incubated for 48 hrs by sulforhodamine B assay relative to control
[22] = tested on: A549; assay: Cytotoxicity against human A549 cells assessed as cell viability at 10 uM incubated for 48 hrs by sulforhodamine B assay relative to control
[23] = tested on: EKVX; assay: Cytotoxicity against human EKVX cells assessed as cell viability at 10 uM incubated for 48 hrs by sulforhodamine B assay relative to control
[24] = tested on: HOP-62; assay: Cytotoxicity against human HOP-62 cells assessed as cell viability at 10 uM incubated for 48 hrs by sulforhodamine B assay relative to control
[25] = tested on: HOP-92; assay: Cytotoxicity against human HOP-92 cells assessed as cell viability at 10 uM incubated for 48 hrs by sulforhodamine B assay relative to control
[26] = tested on: NCI-H226; assay: Cytotoxicity against human NCI-H226 cells assessed as cell viability at 10 uM incubated for 48 hrs by sulforhodamine B assay relative to control
[27] = tested on: NCI-H23; assay: Cytotoxicity against human NCI-H23 cells assessed as cell viability at 10 uM incubated for 48 hrs by sulforhodamine B assay relative to control
[28] = tested on: NCI-H322M; assay: Cytotoxicity against human NCI-H322M cells assessed as cell viability at 10 uM incubated for 48 hrs by sulforhodamine B assay relative to control
[29] = tested on: NCI-H460; assay: Cytotoxicity against human NCI-H460 cells assessed as cell viability at 10 uM incubated for 48 hrs by sulforhodamine B assay relative to control
[30] = tested on: NCI-H522; assay: Cytotoxicity against human NCI-H522 cells assessed as cell viability at 10 uM incubated for 48 hrs by sulforhodamine B assay relative to control
[31] = tested on: COLO 205; assay: Cytotoxicity against human COLO 205 cells assessed as cell viability at 10 uM incubated for 48 hrs by sulforhodamine B assay relative to control
[32] = tested on: HCC 2998; assay: Cytotoxicity against human HCC 2998 cells assessed as cell viability at 10 uM incubated for 48 hrs by sulforhodamine B assay relative to control
[33] = tested on: HCT-116; assay: Cytotoxicity against human HCT-116 cells assessed as cell viability at 10 uM incubated for 48 hrs by sulforhodamine B assay relative to control
[34] = tested on: HCT-15; assay: Cytotoxicity against human HCT-15 cells assessed as cell viability at 10 uM incubated for 48 hrs by sulforhodamine B assay relative to control
[35] = tested on: HCT-29; assay: Cytotoxicity against human […] cells assessed as cell viability at 10 uM incubated for 48 hrs by sulforhodamine B assay relative to control
[36] = tested on: KM12; assay: Cytotoxicity against human KM12 cells assessed as cell viability at 10 uM incubated for 48 hrs by sulforhodamine B assay relative to control
[37] = tested on: SW-620; assay: Cytotoxicity against human SW-620 cells assessed as cell viability at 10 uM incubated for 48 hrs by sulforhodamine B assay relative to control
[38] = tested on: SF-268; assay: Cytotoxicity against human SF-268 cells assessed as cell viability at 10 uM incubated for 48 hrs by sulforhodamine B assay relative to control
[39] = tested on: SNB-19; assay: Cytotoxicity against human SNB-19 cells assessed as cell viability at 10 uM incubated for 48 hrs by sulforhodamine B assay relative to control
[40] = tested on: SNB-75; assay: Cytotoxicity against human SNB-75 cells assessed as cell viability at 10 uM incubated for 48 hrs by sulforhodamine B assay relative to control
[41] = tested on: LOX IMVI; assay: Cytotoxicity against human LOX IMVI cells assessed as cell viability at 10 uM incubated for 48 hrs by sulforhodamine B assay relative to control

## O=S(=O)(NCCNc1nccc(-c2c(-c3cccc(F)c3)nc3sccn23)n1)c1ccccc1
[1]
  viability at 10 µM: 43.6%
[2]
  viability at 10 µM: 18.8%
[3]
  viability at 10 µM: 66%
[4]
  viability at 10 µM: 21.7%
[5]
  viability at 10 µM: 40%
[6]
  viability at 10 µM: 15.4%
[7]
  viability at 10 µM: 40.3%
[8]
  viability at 10 µM: 39.1%
[9]
  viability at 10 µM: 26%
[10]
  viability at 10 µM: 57.1%
[11]
  viability at 10 µM: 4.9%
[12]
  viability at 10 µM: 24.9%
[13]
  viability at 10 µM: 65.3%
[14]
  viability at 10 µM: 19.1%
[15]
  viability at 10 µM: 54.3%
[16]
  viability at 10 µM: 51.8%
[17]
  viability at 10 µM: 33.6%
[18]
  viability at 10 µM: 23.9%
[19]
  viability at 10 µM: 16.6%
[20]
  viability at 10 µM: 43.5%
[21]
  viability at 10 µM: 29.2%
[22]
  viability at 10 µM: 25.2%
[23]
  viability at 10 µM: 53.4%
[24]
  viability at 10 µM: 60.2%
[25]
  viability at 10 µM: 51.5%
[26]
  viability at 10 µM: 34.5%
[27]
  viability at 10 µM: 56.1%
[28]
  viability at 10 µM: 51.5%
[29]
  viability at 10 µM: 25.9%
[30]
  viability at 10 µM: 43.7%
[31]
  viability at 10 µM: 24.1%
[32]
  viability at 10 µM: 66.3%
[33]
  viability at 10 µM: 22.7%
[34]
  viability at 10 µM: 25.8%
[35]
  viability at 10 µM: 23.2%
[36]
  viability at 10 µM: 28.8%
[37]
  viability at 10 µM: 44.5%
[38]
  viability at 10 µM: 43.5%
[39]
  viability at 10 µM: 55.9%
[40]
  viability at 10 µM: 71.5%
[41]
  viability at 10 µM: 36.3%

## O=C(NCCNc1nccc(-c2c(-c3cccc(F)c3)nc3sccn23)n1)c1ccc(C(F)(F)F)cc1
[1]
  viability at 10 µM: 77.6%
[2]
  viability at 10 µM: 43%
[3]
  viability at 10 µM: 74.7%
[4]
  viability at 10 µM: 46.3%
[5]
  viability at 10 µM: 83.7%
[6]
  viability at 10 µM: 34.5%
[7]
  viability at 10 µM: 66.6%
[8]
  viability at 10 µM: 55%
[9]
  viability at 10 µM: 42.6%
[10]
  viability at 10 µM: 70.2%
[11]
  viability at 10 µM: 27.8%
[12]
  viability at 10 µM: 26.4%
[13]
  viability at 10 µM: 96.8%
[14]
  viability at 10 µM: 56.6%
[15]
  viability at 10 µM: 82.1%
[16]
  viability at 10 µM: 69%
[17]
  viability at 10 µM: 53.5%
[18]
  viability at 10 µM: 61.8%
[19]
  viability at 10 µM: 50%
[20]
  viability at 10 µM: 52.7%
[21]
  viability at 10 µM: 68.9%
[22]
  viability at 10 µM: 62.1%
[23]
  viability at 10 µM: 69.1%
[24]
  viability at 10 µM: 89.9%
[25]
  viability at 10 µM: 86.7%
[26]
  viability at 10 µM: 64.8%
[27]
  viability at 10 µM: 80%
[28]
  viability at 10 µM: 81.8%
[29]
  viability at 10 µM: 73.2%
[30]
  viability at 10 µM: 65.7%
[31]
  viability at 10 µM: 32.7%
[32]
  viability at 10 µM: 100%
[33]
  viability at 10 µM: 50.6%
[34]
  viability at 10 µM: 53.1%
[35]
  viability at 10 µM: 50.2%
[36]
  viability at 10 µM: 75.1%
[37]
  viability at 10 µM: 79%
[38]
  viability at 10 µM: 64.9%
[39]
  viability at 10 µM: 86.8%
[40]
  viability at 10 µM: 73.7%
[41]
  viability at 10 µM: 64.8%

## O=S(=O)(NCCCNc1nccc(-c2c(-c3cccc(F)c3)nc3sccn23)n1)c1cccc(F)c1
[1]
  viability at 10 µM: 33%
[2]
  viability at 10 µM: -2.25%
[3]
  viability at 10 µM: 75.9%
[4]
  viability at 10 µM: 33.7%
[5]
  viability at 10 µM: 55.5%
[6]
  viability at 10 µM: 28.2%
[7]
  viability at 10 µM: 56.3%
[8]
  viability at 10 µM: 41.5%
[9]
  viability at 10 µM: 42.5%
[10]
  viability at 10 µM: 66%
[11]
  viability at 10 µM: 18.9%
[12]
  viability at 10 µM: 6.36%
[13]
  viability at 10 µM: 50.8%
[14]
  viability at 10 µM: 13.5%
[15]
  viability at 10 µM: 68.3%
[16]
  viability at 10 µM: 47.6%
[17]
  viability at 10 µM: 24.7%
[18]
  viability at 10 µM: 20.1%
[19]
  viability at 10 µM: 9.94%
[20]
  viability at 10 µM: 28%
[21]
  viability at 10 µM: 64.9%
[22]
  viability at 10 µM: 49.3%
[23]
  viability at 10 µM: 52.4%
[24]
  viability at 10 µM: 61.3%
[25]
  viability at 10 µM: 74.8%
[26]
  viability at 10 µM: 23.2%
[27]
  viability at 10 µM: 38.8%
[28]
  viability at 10 µM: 79.9%
[29]
  viability at 10 µM: 58.3%
[30]
  viability at 10 µM: 21.9%
[31]
  viability at 10 µM: 23.4%
[32]
  viability at 10 µM: 99.3%
[33]
  viability at 10 µM: 48%
[34]
  viability at 10 µM: 22.6%
[35]
  viability at 10 µM: 30.6%
[36]
  viability at 10 µM: 29.9%
[37]
  viability at 10 µM: 76.7%
[38]
  viability at 10 µM: 55.6%
[39]
  viability at 10 µM: 76.8%
[40]
  viability at 10 µM: 88.6%
[41]
  viability at 10 µM: 39%
